Where two headings read alike, the source gives them in different places.
Legend:
[1] = test system: K562 cancer cell (CML cell line); test: Growth inhibition of K562 cancer cell (MTT); type: cell-based; conditions: for IC50: K562, 2 days, MTT; for Improved activity versus Imatinib mesylate: K562
Procedure: In the present experiment, the inhibitory activity of the compound of formula (1) was determined against the growth of K562 cancer cell. First, the cells were allowed to stand in RPMI (Roswell Park Memorial Institute)-1640 medium containing 10% (v/v) fetal bovine serum in an incubator of 37° C. and 5% by volume of CO2. The cancer cells (1000 cells) were transferred to a 96-well plate, and the test compound was diluted. The plate was allowed to stand under the above mentioned conditions for 2 days. […] The supernatant was removed to leave the resulting crystal.

[2] = test system: L1210 cancer cell (leukemia cell line); test: Growth inhibition of L1210 cancer cell (MTT); type: cell-based; conditions: Mus musculus
Procedure: (§1) In the present experiment, the inhibitory activity of the compound of formula (1) was determined against the growth of K562 cancer cell. First, the cells were allowed to stand in RPMI (Roswell Park Memorial Institute)-1640 medium containing 10% (v/v) fetal bovine serum in an incubator of 37° C. and 5% by volume of CO2. The cancer cells (1000 cells) were transferred to a 96-well plate, and the test compound was diluted. The plate was allowed to stand under the above mentioned conditions for 2 days. After this treatment, to the cells was added 0.2% MTT (3-[4,5-dimethylthiazol-2-yl]-2,5-diphenyltetrazolium bromide) solution, and the resulting mixture was allowed to stand under the constant temperature-condition for 4 hours. The supernatant was removed to leave the resulting crystal. DMSO was added to dissolve the crystal, and the absorbance of the solution was measured at 540 nm. IC50 value was calculated using a computer system according to the following formula: […]
In the present experiment, the inhibitory activity of the compound of formula (1) was determined against the growth of L1210 cancer cell. The test was performed according to the same procedure as Experiment 1.

lung cancer cell (A549) = test: Growth inhibition of A549 (MTT); type: cell-based; parameters: IC50 as fraction of that of Imatinib mesylate: unit not given beside the values; conditions: for IC50: Homo sapiens
Procedure: as §1
(§2) The test was performed according to the same procedure as Experiment 1.

[3] = test system: gastric cancer cell (KATO III); test: Growth inhibition of KATO III (MTT); type: cell-based; parameters: IC50 as fraction of that of Imatinib mesylate: unit not given beside the values; conditions: for IC50: Homo sapiens
Procedure: as §1, §2

[4] = test system: hematologic malignancy cell (HL-60); test: Growth inhibition of HL-60 (MTT); type: cell-based; parameters: IC50 as fraction of that of Imatinib mesylate: unit not given beside the values; conditions: for IC50: Homo sapiens
[5] = test system: ovarian cancer cell (SK-OV-03); test: Growth inhibition of SK-OV-03 (MTT); type: cell-based; parameters: IC50 as fraction of that of Imatinib mesylate: unit not given beside the values
Procedure: as §1, §2

[6] = test system: breast cancer cell (MCF-7); test: Growth inhibition of MCF-7 (MTT); type: cell-based; parameters: IC50 as fraction of that of Imatinib mesylate: unit not given beside the values; conditions: for IC50: Homo sapiens, MCF7
Procedure: as §1, §2

[7] = test system: acute myelogenous leukemia cell (KG-1); test: Growth inhibition of KG-1 (MTT); type: cell-based; conditions: for IC50: Homo sapiens
[8] = test system: lymphoma cell (RPMI-6666); test: Growth inhibition of RPMI-6666 (MTT); type: cell-based; conditions: for IC50: Homo sapiens
Procedure: as §1, §2

hepatoma cell (SNU-182) = test: Growth inhibition of SNU-182 (MTT); type: cell-based; parameters: IC50 as fraction of that of Imatinib mesylate: unit not given beside the values; conditions: for IC50: Homo sapiens
Procedure: as §1, §2

[9] = test system: pancreatic cancer cell of PANC-1; test: Growth inhibition of PANC-1 (MTT); type: cell-based; conditions: for IC50: Homo sapiens, read-out: IC50
[10] = test system: pancreatic cancer cell of CAPAN-2; test: Growth inhibition of CAPAN-2 (MTT); type: cell-based; conditions: for Improved activity versus 5-Fu / Improved activity versus cisplatin: CAPAN-2; for IC50: Homo sapiens, Capan-2, read-out: IC50
[11] = test system: colon cancer cell of SNU-C1; test: Growth inhibition of SNU-C1 (MTT); type: cell-based; conditions: for IC50: Homo sapiens, read-out: IC50
[12] = test system: rectal cancer cell of CMT-93; test: Growth inhibition of CMT-93 (MTT); type: cell-based; conditions: for IC50: CMT93, read-out: IC50
Procedure: as §1, §2

[13] = test system: cervical cancer cell of HeLa229; test: Growth inhibition of HeLa 229 (MTT); type: cell-based; conditions: for IC50: Homo sapiens, read-out: IC50
[14] = test system: bladder cancer cell of HT-1197; test: Growth inhibition of HT-1197 (MTT); type: cell-based; conditions: for IC50: Homo sapiens, HT1197, read-out: IC50
Procedure: as §1, §2

[15] = Comparative pharmacokinetic test in white rats; type: in vivo, white rats (Sprague-Dawley); conditions: rat
Procedure: On the previous day to the test, white rats (Sprague-Dawley, 250˜280 g, male) were put under anesthesia by pentobarbital sodium (50 mg/kg, I.P.). Then, cannula (polyethylene tube; diameter: 0.58mm) was introduced into the rats via the carotid artery and jugular vein, and drawn out to the back. After the operation, the rats were fasted for 16 hours and used for the test. […] Blood was collected in 0, 0.5, 1, 1.5, 2, 2.5, 3, 3.5, 4, 4.5, 5, 6, 8, 10, 12, and 24 hours from the carotid artery. The samples for HPLC analysis were prepared using the collected blood according to the following procedure and were analyzed under the following conditions.
Blood was collected by an amount of 0.5 ml at each prearranged time and centrifuged at 15000 rpm for 7 minutes to separate […] of plasma. In order to remove proteins, MeOH was added in an amount of […], twice as much as the amount of plasma, and the mixture was shaken for 30 minutes. The mixture was centrifuged again at 15000 rpm for 5 minutes to give protein free supernatant, which was then analyzed by HPLC.
Flow rate: 1.0 ml/min, UV detection at 267 nm
Column: 4.6×150 mm, 5C18-AR-II, COSMOSIL
Eluent: Mixture of ion pair sample (420 ml) and MeOH (580 ml)
Ion pair sample: 7.5 g of 1-octanesulfonic acid was dissolved in 800 ml of water. The resulting mixture was adjusted to pH 2.5 using phosphoric acid and diluted with water to 1000 ml volume.
Here, the pharmacokinetic parameters are Tmax (time to reach the maximum blood concentration), Cmax (maximum blood concentration), AUC (area under the curve of time-blood concentration), and T1/2 (half time in blood), and the AUC was calculated under trapezoid rule (see Tables 6, 7 and FIGS. 1, 2).

[16] = Homo sapiens, K562, 48 h, read-out: IC50
[17] = male, Sprague-Dawley, plasma, po, 50 mg/kg, P.O.
[18] = male, Sprague-Dawley, plasma, iv, 50 mg/kg, I.V.

In the case of `CS(=O)(=O)O.Cc1ccc(NC(=O)c2ccc(CNN3CCN(C)CC3)cc2)cc1Nc1nccc(-c2cccnc2)n1` [Example 4, 4-(4-methylpiperazin-1-ylaminomethyl)-N-[4-methyl-3-(4-(pyridin-3-yl)pyrimidin-2-yl)aminophenyl]benzamide methanesulfonate], the IC50 [1, 16] was no more than 0.1 µg/mL, the IC50 ([1]; methanesulfonate) was less than 0.10 µg/mL and the “Improved activity versus Imatinib mesylate” value ([1]; listed as example 4, methanesulfonate) was 5 times. For the same compound, the “Improved activity versus Imatinib mesylate” value ([1]; methanesulfonate) was no less than 5 times, the IC50 [2] was 26.9 µg/mL and the IC50 (lung cancer cell (A549)) was 46.6 µg/mL. It also gave an IC50 [3] of 32.4 µg/mL, an IC50 [4] of 27.8 µg/mL and an IC50 [5] greater than 50 µg/mL. The IC50 [6] was greater than 50 µg/mL, the IC50 [7] was greater than 50 µg/mL and the IC50 [8] was 33.8 µg/mL. For the same compound, the IC50 (hepatoma cell (SNU-182)) was 48 µg/mL, the “Improved activity versus 5-Fu” value [9] was 10 times and the IC50 [9] was 53.8 µg/mL. For the same compound, the “Improved activity versus 5-Fu” value [10] was 17 times, the “Improved activity versus cisplatin” value [10] was 9 times and the IC50 [10] was 56.3 µg/mL. For the same compound, the “Improved activity versus 5-Fu” value [11] was 9 times, the “Improved activity versus Imatinib mesylate” value [11] was 3 times and the “Improved activity versus cisplatin” value [11] was 30 times. It also gave an IC50 [11] of 10 µg/mL, an IC50 [12] of 8.39 µg/mL and an IC50 [13] of 48.5 µg/mL. The IC50 [14] was 50.1 µg/mL, the Cmax [15, 17] was 3160 ng/mL and the Tmax [15, 17] was 2 h. For the same compound, the AUC ([15]; male, Sprague-Dawley, plasma, po, 50 mg/kg, P.O., trapezoid rule) was 23000 ng·h/mL, the “AUC relative to Imatinib mesylate” value ([15]; both per oral 100 mg/kg) was “about twice” and the “Cmax relative to Imatinib mesylate” value ([15]; both per oral 100 mg/kg) was “about twice”.
For `CN1CCCN(Cc2ccc(C(=O)Nc3ccc(Nc4nccc(-c5cccnc5)n4)cc3)cc2)CC1.CS(=O)(=O)O` [Example 10, 4-(4-methylhomopiperazin-1-ylmethyl)-N-[4-(4-(pyridin-3-yl)pyrimidin-2-yl)aminophenyl]benzamide methanesulfonate], the IC50 [1, 16] was 3.85 µg/mL, the IC50 [2] was 3.4 µg/mL and the “IC50 as fraction of that of Imatinib mesylate” value (shortened to “IC50 as fraction”) (lung cancer cell (A549)) was 1/10. For the same compound, the IC50 (lung cancer cell (A549)) was 3.5 µg/mL, the “IC50 as fraction” value [3] was 1/10 and the IC50 [3] was 3.26 µg/mL. For the same compound, the “IC50 as fraction” value [4] was 1/8, the IC50 [4] was 4.28 µg/mL and the IC50 [5] was 25.5 µg/mL. The “IC50 as fraction” value [5] was 1/2, the “IC50 as fraction” value [6] was 1/7 and the IC50 [6] was 6.96 µg/mL. The “IC50 as fraction” value [7] was 1/10, the IC50 [7] was 3.31 µg/mL and the “IC50 as fraction” value [8] was 1/15. For the same compound, the IC50 [8] was 2.12 µg/mL, the “IC50 as fraction” value (hepatoma cell (SNU-182)) was 1/5 and the IC50 (hepatoma cell (SNU-182)) was 7.94 µg/mL. For the same compound, the “Improved activity versus 5-Fu” value [9] was greater than 120 times, the “Improved activity versus Imatinib mesylate” value [9] was “more than 10 times” and the “Improved activity versus cisplatin” value [9] was “more than 9 times”. For the same compound, the IC50 [9] was 4.62 µg/mL, the “Improved activity versus 5-Fu” value [10] was greater than 20 times and the “Improved activity versus cisplatin” value [10] was “more than 10 times”. For the same compound, the IC50 [10] was 45.9 µg/mL, the “Improved activity versus 5-Fu” value [11] was greater than 80 times and the “Improved activity versus Imatinib mesylate” value [11] was “more than 25 times”. The “Improved activity versus cisplatin” value [11] was “more than 250 times”, the IC50 [11] was 1.2 µg/mL and the “Improved activity versus Imatinib mesylate” value [12] was greater than 1.5 times. The IC50 [12] was 4.04 µg/mL, the “Improved activity versus Imatinib mesylate” value [13] was “more than 8 times” and the IC50 [13] was 5.5 µg/mL. The “Improved activity versus 5-Fu” value [14] was greater than 55 times, the “Improved activity versus Imatinib mesylate” value [14] was greater than 32 times and the “Improved activity versus cisplatin” value [14] was “more than 4.4 times”. The IC50 [14] was 1.7 µg/mL, the AUC [15, 18] was 8920 ng·h/mL and the half-life [15, 18] was 1.37 h.

Reference: patent US20040248918A1, “N-phenyl-2-pyrimidine-amine derivatives and process for the preparation thereof” (IL YANG PHARM. CO., LTD., priority 2003, published 2004)
